Laboratory results from patent US9150531B2, “Tricyclic lactones for treatment of cancer” (Glactone Pharma Development AB, priority 2010, dated 2015).

Legend:
DU145 [1] = test: WST-1 proliferation assay, DU145 cells (Example 17); format: cell-based, human; settings: 25.0 μM
DU145 [2] = test: as above; format: cell-based, human
Procedure: (§1) The human prostate cancer cell line DU145 was used. The cells were cultured in RPMI 1640 medium supplemented with 10% FBS and 1% penicillin-streptomycin. All cells were incubated at 37° C. in a humidified atmosphere of […] and 5% CO2.
WST-1 proliferation assay was performed to study the effects of the test items on the proliferation and viability of cultured prostate cancer cells. DU145 cells were cultured in 96-well plates at the density of 2 000 cells/well in 200 μl of medium. Cells were allowed to set for 24 h and 48 h. The cells were treated with 0.5, 1.0, 2.5, 5.0, 10, and 50 μM of the specific substance for 24 h and 48 h. Samples were made in triplicate. 20 μl WST-1 solution (Roche Applied Science, Mannheim, Germany) was added per well and incubated at 37° C. for 4 h. The absorbance of each well was measured using a scanning multiwell spectrophotometer, ELISA reader at a wavelength of 450 nm and reference wavelength of 690 nm. The results are presented as percent of untreated control cells or the absorbance value.

[3] = test system: STAT-3 transcription factor; test: STAT3 inhibition, luciferase reporter (4xM67 pTATA TK-Luc) in HeLa cells stimulated with γ-Interferon; format: cell-based; settings: Homo sapiens, γ-Interferon 8 h, luciferase activity, read-out: Anti STAT3 IC50
Procedure: HeLa cells (4×10^4/ml) were transiently transfected with a luciferase reporter plasmid (4×M67 pTATA TK-Luc) driven by artificial promoter containing 4 repeated M67 binding sites in tandem for the STAT-3 transcription factor. The transfections were performed for 24 h using Roti-Fect reagent (Carl Roth, Karlsruhe, Germany) according to the manufacturer's recommendations. After incubation with different concentrations of the extracts for 30 min the transfected cells were stimulated for 8 h with γ-Interferon. Then, the cells were lysed in 25 mM Tris-phosphate pH 7.8, 8 mM MgCl2, 1 mM DTT, 1% Triton X-100, and 7% glycerol. Luciferase activity was measured as described for 5.1 cells.
γ-Interferon induces an average of 5-6 fold induction of the luciferase activity compared to non stimulated cells and this represent the index of transactivation that is represented in our experiment as the maximum levels of γ-Interferon-induced STAT-3 activation (100%). Results below represent the IC50 for each compound in this assay. The IC50 means the concentration of each compound that reduces luciferase activity by 50% and it was calculated by GraphPad software.

DU145 [4] = test: WST-1 proliferation assay, DU145 cells (Example 16); format: cell-based, human
Procedure: as §1, with “lines DU145, LNCaP (from the American Type culture Collection, ATCC) and long-term interleukin-6 (IL-6) stimulated LNCaP cells (LNCaP-IL6 cells) (Hobisch, Ramoner et al. 2001) were” for “line DU145 was”
(§2) WST-1 proliferation assay was performed to study the effects of the test items on the proliferation and viability of cultured prostate cancer cells. LNCaP and DU145 cells were cultured in 96-well plates at the density of 2 000 cells/well in 200 μl of medium. Cells were allowed to set for 24 h. The cells were treated with 0, 2.5, 5 or 10 μM of the specific substance for 24 h and 48 h. Samples were made in triplicate. 20 μl WST-1 solution (Roche Applied Science, Mannheim, Germany) was added per well and incubated at 37° C. for 4 h. The absorbance of each well was measured using a scanning multiwell spectrophotometer, ELISA reader at a wavelength of 450 nm and reference wavelength of 690 nm. The results are presented as percent of untreated control cells or the absorbance value.

LNCaP-IL6 cells = test: WST-1 proliferation assay, LNCaP-IL6 cells; format: cell-based, human
Procedure: as §1, with “lines DU145, LNCaP (from the American Type culture Collection, ATCC) and long-term interleukin-6 (IL-6) stimulated LNCaP cells (LNCaP-IL6 cells) (Hobisch, Ramoner et al. 2001) were” for “line DU145 was”
as §2

Row | SMILES | Proliferation (vs control) Du145 (%) 24 h (DU145 [1]) [%] | Proliferation (vs control) Du145 (%) 48 h (DU145 [1]) [%] | Proliferation (vs control) Du145 (%) 24 h (DU145 [2]; 0.5 μM) [%] | Proliferation (vs control) Du145 (%) 48 h (DU145 [2]; 0.5 μM) [%] | Proliferation (vs control) Du145 (%) 24 h (DU145 [2]; 1.0 μM) [%] | Proliferation (vs control) Du145 (%) 48 h (DU145 [2]; 1.0 μM) [%] | Proliferation (vs control) Du145 (%) 24 h (DU145 [2]; 2.5 μM) [%] | IC50 [3] [nM] | % Proliferation (vs control) 24 h DU145 (DU145 [4]; 2.5 uM) [%] | % Proliferation (vs control) 48 h Du145 (DU145 [4]; 2.5 uM) [%] | % Proliferation (vs control) 24 h DU145 (DU145 [4]; 5 uM) [%] | % Proliferation (vs control) 48 h Du145 (DU145 [4]; 5 uM) [%] | % Proliferation (vs control) 24 h DU145 (DU145 [4]; 10 uM) [%] | % Proliferation (vs control) 48 h Du145 (DU145 [4]; 10 uM) [%] | % Proliferation (vs control) 24 h LNCaP-IL6 (LNCaP-IL6 cells; 2.5 uM) [%] | % Proliferation (vs control) 48 h LNCaP-IL6 (LNCaP-IL6 cells; 2.5 uM) [%] | % Proliferation (vs control) 24 h LNCaP-IL6 (LNCaP-IL6 cells; 5 uM) [%] | % Proliferation (vs control) 48 h LNCaP-IL6 (LNCaP-IL6 cells; 5 uM) [%] | % Proliferation (vs control) 24 h LNCaP-IL6 (LNCaP-IL6 cells; 10 uM) [%] | % Proliferation (vs control) 48 h LNCaP-IL6 (LNCaP-IL6 cells; 10 uM) [%] | other results
1 | C[C@H]1C=C2C(=O)O[C@@H]3C[C@@H](c4ccccc4)[C@H](C1)[C@]23O (stereo in doubt) [Example 4, 5,5a,6,7,7a,7b-hexahydro-7b-hydroxy-4-methyl-6-phenyl-indeno[1,7-bc]furan-2(4H)-one] | 22.17 | 21.83 | 125.24 | 161.90 | 76.74 | 106.97 | 86.48 |  |  |  |  |  |  |  |  |  |  |  |  |  | Proliferation (vs control) Du145 (%) 48 h (DU145 [2]; 2.5 μM): 106.23%; Proliferation (vs control) Du145 (%) 24 h (DU145 [2]; 5.0 μM): 91.39%; Proliferation (vs control) Du145 (%) 48 h (DU145 [2]; 5.0 μM): 73.13%; Proliferation (vs control) Du145 (%) 24 h (DU145 [2]; 10.0 μM): 45.29%; Proliferation (vs control) Du145 (%) 48 h (DU145 [2]; 10.0 μM): 59.35%; Proliferation (vs control) Du145 (%) 24 h (DU145 [2]; 50.0 μM): 18.31%; Proliferation (vs control) Du145 (%) 48 h (DU145 [2]; 50.0 μM): 11.34%
2 | C[C@H]1C=C2C(=O)O[C@@H]3CC[C@H](C1(C)C)[C@]23O (stereo in doubt) [Example 5, 5,5a,6,7,7a,7b-hexahydro-7b-hydroxy-4,5,5-trimethyl-indeno[1,7-bc]furan-2(4H)-one] | 28.13 | 13.26 | 105.62 | 98.92 | 101.40 | 93.59 | 72.14 |  |  |  |  |  |  |  |  |  |  |  |  |  | Proliferation (vs control) Du145 (%) 48 h (DU145 [2]; 2.5 μM): 53.09%; Proliferation (vs control) Du145 (%) 24 h (DU145 [2]; 5.0 μM): 54.75%; Proliferation (vs control) Du145 (%) 48 h (DU145 [2]; 5.0 μM): 35.53%; Proliferation (vs control) Du145 (%) 24 h (DU145 [2]; 10.0 μM): 39.62%; Proliferation (vs control) Du145 (%) 48 h (DU145 [2]; 10.0 μM): 29.96%; Proliferation (vs control) Du145 (%) 24 h (DU145 [2]; 50.0 μM): 14.36%; Proliferation (vs control) Du145 (%) 48 h (DU145 [2]; 50.0 μM): 8.51%
3 | O=C1O[C@@H]2[C@H](Cc3ccccc3)C[C@@H]3CCC=C1[C@@]32O (stereo in doubt) [Example 6, 5,5a,6,7,7a,7b-hexahydro-7b-hydroxy-7-benzyl-indeno[1,7-bc]furan-2(4H)-one] | 45.01 | 23.80 | 110.14 | 121.11 | 98.76 | 120.77 | 104.13 |  |  |  |  |  |  |  |  |  |  |  |  |  | Proliferation (vs control) Du145 (%) 48 h (DU145 [2]; 2.5 μM): 101.61%; Proliferation (vs control) Du145 (%) 24 h (DU145 [2]; 5.0 μM): 81.25%; Proliferation (vs control) Du145 (%) 48 h (DU145 [2]; 5.0 μM): 78.86%; Proliferation (vs control) Du145 (%) 24 h (DU145 [2]; 10.0 μM): 43.88%; Proliferation (vs control) Du145 (%) 48 h (DU145 [2]; 10.0 μM): 42.70%; Proliferation (vs control) Du145 (%) 24 h (DU145 [2]; 50.0 μM): 23.59%; Proliferation (vs control) Du145 (%) 48 h (DU145 [2]; 50.0 μM): 9.88%
4 | COC(=O)C1=C[C@H](C)C[C@H]2C[C@H](c3ccccc3)[C@@H]3O[C@]123 (stereo in doubt) [Example 7, methyl 5-methyl-2-phenyl-1a,2,3,3a,4,5-hexahydroindeno[1,7a-b]oxirene-7-carboxylate] |  |  |  |  |  |  |  | 1830 | 90.64 | 95.09 | 68.55 | 75.05 | 63.86 | 76.58 | 81.79 | 82.60 | 81.21 | 85.26 | 70.45 | 71.27 | 
5 | COC(=O)C1=C[C@H](C)C[C@H]2C[C@@H](c3ccccc3)[C@@H]3O[C@]123 (stereo in doubt) [Example 8, methyl 5-methyl-2-phenyl-1a,2,3,3a,4,5-hexahydroindeno[1,7a-b]oxirene-7-carboxylate] |  |  |  |  |  |  |  | 750 | 80.94 | 63.59 | 58.19 | 27.29 | 48.49 | 19.98 | 69.23 | 48.79 | 58.97 | 20.28 | 52.67 | 18.81 | 
6 | COC(=O)C1=C[C@H](C)C[C@H]2C[C@@H](Cc3ccccc3)[C@@H]3O[C@]123 (stereo in doubt) [Example 9, methyl 2-benzyl-5-methyl-1a,2,3,3a,4,5-hexahydroindeno[1,7a-b]oxirene-7-carboxylate] |  |  |  |  |  |  |  | 2010 | 96.36 | 93.96 | 88.29 | 85.24 | 75.01 | 55.43 | 92.78 | 104.12 | 90.02 | 108.49 | 96.73 | 96.48 | 
7 | COC(=O)C1=C[C@H](C)C[C@H]2C[C@H](Cc3ccccc3)[C@@H]3O[C@]123 (stereo in doubt) [Example 10, methyl 2-benzyl-5-methyl-1a,2,3,3a,4,5-hexahydroindeno[1,7a-b]oxirene-7-carboxylate] |  |  |  |  |  |  |  | 2980 | 86.82 | 88.02 | 98.85 | 92.54 | 66.76 | 28.27 | 81.18 | 74.81 | 92.69 | 80.02 | 76.05 | 23.18 | 
8 | COC(=O)C1=C[C@H](C)C[C@H]2CC(C)(C)[C@@H]3O[C@]123 (stereo in doubt) [Example 11, methyl 2,2,5-trimethyl-1a,2,3,3a,4,5-hexahydroindeno[1,7a-b]oxirene-7-carboxylate] |  |  |  |  |  |  |  | 2490 | 93.88 | 85.06 | 80.42 | 67.77 | 72.14 | 45.51 | 93.47 | 78.36 | 89.35 | 71.85 | 79.82 | 31.62 | 
